In ChEMBL document CHEMBL1909046, “DrugMatrix in vitro pharmacology data”:

How the values were obtained:
[1] = target: Beta-1 adrenergic receptor (Homo sapiens, UniProt P08588); experiment: DRUGMATRIX: Adrenergic beta1 radioligand binding (ligand: [125I] Cyanopindolol); type: cell membranes, CHO-K1, Membrane; settings: cho-k1; Not Active = under 50% inhibition at 10 µM
[2] = target: Beta-2 adrenergic receptor (Homo sapiens, UniProt P07550); experiment: DRUGMATRIX: Adrenergic beta2 radioligand binding (ligand: [3H] CGP-12177); type: cell membranes, CHO, Membrane; settings: cho; Not Active = under 50% inhibition at 10 µM
[3] = DRUGMATRIX: Tumor Necrosis Factor (TNF), Non-Selective radioligand binding (ligand: [125I] TNF-alpha); type: cell membranes, Membrane; settings: u-937; Not Active = under 50% inhibition at 10 µM
[4] = target: T1, Nitric oxide synthase, inducible (Mus musculus, UniProt P29477); set-up: species or system Escherichia coli;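 note: inhibition of iNOS enzyme activity measured with L-arginine as substrate; in other assays of this panel Not Active means under 50% inhibition at 10 µM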
T1 sequence (P29477 whole entry): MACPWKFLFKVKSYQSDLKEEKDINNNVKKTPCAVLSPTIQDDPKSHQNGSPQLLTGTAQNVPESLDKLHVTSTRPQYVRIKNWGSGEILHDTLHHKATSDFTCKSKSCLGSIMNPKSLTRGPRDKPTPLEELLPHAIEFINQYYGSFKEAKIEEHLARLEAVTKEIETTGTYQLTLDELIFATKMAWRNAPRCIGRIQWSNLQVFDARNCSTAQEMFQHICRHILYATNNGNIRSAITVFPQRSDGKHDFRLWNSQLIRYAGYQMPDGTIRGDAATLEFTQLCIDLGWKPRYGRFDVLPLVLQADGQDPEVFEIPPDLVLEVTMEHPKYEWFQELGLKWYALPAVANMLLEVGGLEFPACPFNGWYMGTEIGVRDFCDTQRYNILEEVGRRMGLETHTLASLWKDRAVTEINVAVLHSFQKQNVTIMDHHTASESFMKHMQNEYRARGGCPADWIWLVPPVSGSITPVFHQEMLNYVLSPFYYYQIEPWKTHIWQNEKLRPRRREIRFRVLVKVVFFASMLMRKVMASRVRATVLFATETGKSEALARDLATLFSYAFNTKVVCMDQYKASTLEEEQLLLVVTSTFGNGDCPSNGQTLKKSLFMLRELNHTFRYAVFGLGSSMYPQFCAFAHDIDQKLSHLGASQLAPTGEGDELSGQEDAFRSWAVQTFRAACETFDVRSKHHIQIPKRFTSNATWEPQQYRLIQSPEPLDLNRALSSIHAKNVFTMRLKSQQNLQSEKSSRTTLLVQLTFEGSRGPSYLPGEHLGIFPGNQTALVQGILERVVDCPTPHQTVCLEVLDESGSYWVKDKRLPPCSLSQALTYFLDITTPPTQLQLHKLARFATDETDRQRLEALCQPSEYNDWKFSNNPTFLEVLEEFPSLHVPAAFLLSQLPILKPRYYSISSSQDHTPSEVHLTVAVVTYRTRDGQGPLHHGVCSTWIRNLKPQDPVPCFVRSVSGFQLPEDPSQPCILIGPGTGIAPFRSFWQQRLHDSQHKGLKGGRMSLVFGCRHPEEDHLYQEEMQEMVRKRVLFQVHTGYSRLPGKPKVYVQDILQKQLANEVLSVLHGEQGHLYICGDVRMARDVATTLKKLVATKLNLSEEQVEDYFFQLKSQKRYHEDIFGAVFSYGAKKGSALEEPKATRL

[5] = DRUGMATRIX: Phorbol Ester radioligand binding (ligand: [3H] PDBu); type: cell membranes, Mus musculus, ICR, Brain, Membrane; settings: Not Active = under 50% inhibition at 10 µM
Interstitial collagenase = target: T2, Interstitial collagenase (Homo sapiens, UniProt P03956); experiment: biochemical; type: tissue-based, Rheumatoid synovial fibroblasts;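 note: MMP-1 enzyme inhibition assay using a peptide substrate; in other assays of this panel Not Active means under 50% inhibition at 10 µM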
T2 sequence (P03956 whole entry): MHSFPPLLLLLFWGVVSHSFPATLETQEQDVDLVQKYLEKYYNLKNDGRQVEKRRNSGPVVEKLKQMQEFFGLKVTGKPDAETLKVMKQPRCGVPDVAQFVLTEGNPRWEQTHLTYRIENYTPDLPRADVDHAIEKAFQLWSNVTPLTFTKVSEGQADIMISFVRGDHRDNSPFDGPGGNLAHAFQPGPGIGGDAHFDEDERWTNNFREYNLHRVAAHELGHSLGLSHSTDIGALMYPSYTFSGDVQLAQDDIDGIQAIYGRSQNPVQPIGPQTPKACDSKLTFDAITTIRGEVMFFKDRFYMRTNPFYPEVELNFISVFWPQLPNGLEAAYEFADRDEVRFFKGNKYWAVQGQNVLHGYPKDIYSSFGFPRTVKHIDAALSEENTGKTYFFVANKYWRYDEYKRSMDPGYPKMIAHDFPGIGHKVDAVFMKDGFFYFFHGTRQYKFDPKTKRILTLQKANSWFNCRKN

[6] = target: T3, 5-hydroxytryptamine receptor 1A (Rattus norvegicus, UniProt P19327); type: cell membranes, CHO-K1, Membrane; settings: cho-k1; note: in other assays of this panel Not Active means under 50% inhibition at 10 µM
T3 sequence (P19327 whole entry): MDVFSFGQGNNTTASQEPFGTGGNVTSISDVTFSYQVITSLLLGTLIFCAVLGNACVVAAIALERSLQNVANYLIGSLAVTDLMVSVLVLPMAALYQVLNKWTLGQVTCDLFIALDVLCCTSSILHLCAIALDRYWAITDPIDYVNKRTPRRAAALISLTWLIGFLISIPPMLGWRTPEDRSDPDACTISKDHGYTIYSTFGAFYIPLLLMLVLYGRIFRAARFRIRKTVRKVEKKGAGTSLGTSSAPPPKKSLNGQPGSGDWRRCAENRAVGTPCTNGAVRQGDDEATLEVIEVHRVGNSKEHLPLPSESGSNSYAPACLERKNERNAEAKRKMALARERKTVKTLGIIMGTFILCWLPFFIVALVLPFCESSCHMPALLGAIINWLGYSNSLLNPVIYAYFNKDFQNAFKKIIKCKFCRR

[7] = target: Voltage-gated inwardly rectifying potassium channel KCNH2 (Homo sapiens, UniProt Q12809); settings: hek293; note: in other assays of this panel Not Active means under 50% inhibition at 10 µM
Sequence of Voltage-gated inwardly rectifying potassium channel KCNH2 (Q12809 whole entry): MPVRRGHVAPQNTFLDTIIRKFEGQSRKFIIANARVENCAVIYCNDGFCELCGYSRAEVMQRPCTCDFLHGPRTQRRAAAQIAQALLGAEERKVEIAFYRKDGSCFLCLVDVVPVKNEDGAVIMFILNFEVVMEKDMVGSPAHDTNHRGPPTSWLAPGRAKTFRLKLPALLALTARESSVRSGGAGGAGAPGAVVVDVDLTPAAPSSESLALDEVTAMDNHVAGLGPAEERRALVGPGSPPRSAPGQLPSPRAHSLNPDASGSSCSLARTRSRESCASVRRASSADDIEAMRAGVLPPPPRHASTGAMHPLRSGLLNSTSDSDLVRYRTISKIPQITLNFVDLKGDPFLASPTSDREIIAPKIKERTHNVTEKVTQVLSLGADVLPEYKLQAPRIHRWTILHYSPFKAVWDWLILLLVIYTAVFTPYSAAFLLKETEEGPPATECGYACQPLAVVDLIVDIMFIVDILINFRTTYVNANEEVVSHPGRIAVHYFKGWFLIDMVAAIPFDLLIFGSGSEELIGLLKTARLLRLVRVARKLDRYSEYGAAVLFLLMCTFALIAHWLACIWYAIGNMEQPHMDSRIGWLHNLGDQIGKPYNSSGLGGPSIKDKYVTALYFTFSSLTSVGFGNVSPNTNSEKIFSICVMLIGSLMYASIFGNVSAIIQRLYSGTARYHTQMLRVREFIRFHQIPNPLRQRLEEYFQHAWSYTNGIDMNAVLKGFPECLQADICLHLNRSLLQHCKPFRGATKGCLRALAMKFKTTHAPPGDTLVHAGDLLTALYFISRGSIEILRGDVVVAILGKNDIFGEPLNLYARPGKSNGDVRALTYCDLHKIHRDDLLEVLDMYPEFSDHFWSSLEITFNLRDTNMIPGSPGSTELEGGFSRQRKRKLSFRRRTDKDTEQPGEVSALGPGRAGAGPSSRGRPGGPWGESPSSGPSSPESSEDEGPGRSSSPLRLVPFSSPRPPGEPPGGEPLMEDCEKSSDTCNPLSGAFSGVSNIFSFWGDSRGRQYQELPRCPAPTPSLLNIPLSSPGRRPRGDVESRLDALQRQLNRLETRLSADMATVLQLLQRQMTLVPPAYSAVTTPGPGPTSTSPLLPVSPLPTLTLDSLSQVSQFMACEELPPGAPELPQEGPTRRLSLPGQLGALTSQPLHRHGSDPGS

Sequence of Beta-1 adrenergic receptor (P08588 whole entry): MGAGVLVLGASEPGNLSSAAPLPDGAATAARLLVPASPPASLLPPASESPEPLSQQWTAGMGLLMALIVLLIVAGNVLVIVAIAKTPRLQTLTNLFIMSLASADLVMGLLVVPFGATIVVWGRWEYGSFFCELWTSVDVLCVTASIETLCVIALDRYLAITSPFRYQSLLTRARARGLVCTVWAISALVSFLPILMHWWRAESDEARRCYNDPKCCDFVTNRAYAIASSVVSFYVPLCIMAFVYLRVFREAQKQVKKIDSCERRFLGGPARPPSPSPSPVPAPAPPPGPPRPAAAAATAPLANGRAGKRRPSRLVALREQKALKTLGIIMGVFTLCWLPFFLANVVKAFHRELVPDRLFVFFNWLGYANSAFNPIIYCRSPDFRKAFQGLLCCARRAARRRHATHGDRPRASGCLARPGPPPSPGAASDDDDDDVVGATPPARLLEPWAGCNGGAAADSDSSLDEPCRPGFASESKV

CC(c1cc2ccccc2s1)N(O)C(N)=O (stereo not drawn) [ZILEUTON]
Not Active: IC50 [1] | IC50 [2] | IC50 [3] | Ki [3] | IC50 [4] | IC50 [5] | Ki [5] | IC50 (Interstitial collagenase) | IC50 [6] | IC50 [7] | Ki [7]

MANGANESE CHLORIDE ANHYDROUS
Not Active: IC50 [1] | Ki [1] | IC50 [2] | Ki [2] | IC50 [3] | Ki [3] | IC50 [4] | Ki [4] | IC50 [5] | Ki [5] | IC50 (Interstitial collagenase) | Ki (Interstitial collagenase) | IC50 [6] | Ki [6] | IC50 [7] | Ki [7]

SODIUM ORTHOVANAD
Not Active: IC50 [1] | Ki [1] | IC50 [2] | Ki [2] | IC50 [3] | Ki [3] | IC50 [4] | Ki [4] | IC50 [5] | Ki [5] | IC50 (Interstitial collagenase) | Ki (Interstitial collagenase) | IC50 [6] | Ki [6] | IC50 [7] | Ki [7]
